Like-named read-outs stand apart in the source and are kept apart here.
Legend:
Assay in all cases: 96-well microtiter plate assay, fungal growth inhibition
C. acutatum = type: cell-based, Colletotrichum acutatum; conditions: for Percent inhibition−Percent Stimulation±SEM: C. acutatum; for inhibition at 0.3 µM / inhibition at 3 µM / inhibition at 30 µM: Colletotrichum acutatum, read-out: Percent inhibition−Percent Stimulation±SEM
Source text: (§1) Pathogen production. Isolates of Colletotrichum acutatum Simmonds, Colletotrichum fragariae Brooks, and Colletotrichum gloeosporioides (Penz.) Penz. & Sacc. in Penz. were obtained from B. J. Smith, USDA, ARS, Small Fruit Research Station, Poplarville, Miss. Colletotrichum fragariae (isolate CF63), C. acutatum (isolate CAGoff), and C. gloeosporioides (isolate CG162) were used for all pathogen and bioautography studies. Isolate CF63 is one of the most virulent isolates at infecting strawberry plants and inducing both crown and fruit rot (Smith and Black, 1990). CF63, CAGoff, and CG162 were used as standard test isolates because of our extensive knowledge of these isolates and their known fungicide sensitivity profiles in both bioautography and microtiter formats. The three Colletotrichum species were isolated from strawberry (Fragaria x ananassa Duchesne). Botrytis cinerea Pers.: Fr, was isolated from commercial grape (Vitis vinifera L.) and Fusarium oxysporum Schlechtend: Fr from orchid (Cynoches sp.). Phomopsis viticola (Sacc.) and P. obscurans (Ellis & Everh.) Sutton were from Mike A. Ellis, Ohio State University, Wooster, Ohio. Fungi were grown on potato-dextrose agar (PDA, Difco, Detroit, Mich.) in 9 cm petri dishes and incubated in a growth chamber at 24±2° C. and under cool-white fluorescent lights ([…]·m^−2·sec^−1 light) with 12 hour photoperiod.
(§2) Inoculum preparation. Conidia were harvested from 7-10 day-old cultures by flooding plates with 5 mL of sterile distilled water and dislodging conidia by softly brushing the colonies with an L-shaped glass rod. Conidial suspensions were filtered through sterile miracloth (Calbiochem-Novabiochem Corp., La Jolla, Calif.) to remove mycelia. Conidia concentrations were determined photometrically, from a standard curve based on the percent of transmittance (% T) at 625 nm and suspensions were then adjusted with sterile distilled water to a concentration of 1.0×10^6 conidia/mL.
(§3) Microtiter assay. A standardized 96-well microtiter plate assay developed for discovery of natural product fungicidal agents was used to evaluate naturally occurring antifungal agents from Macaranga monanara. A 96-well microtiter assay was used to determine sensitivity of B. cinerea, C. acutatum, C. fragariae, C. gloeosporioides, F. oxysporum, Phomopsis viticola, and P. obscurans to the various antifungal agents in comparison with known fungicidal standards. Vinclozolin, captan, and thiabendazole, which represent three different modes of action, were used as standards in this experiment. Each fungus was challenged in a dose-response format using test compounds where the final treatment concentrations were 0.3, 3.0 and 30.0 μM. Microtiter plates (Nunc MicroWell, untreated; Roskilde, Denmark) were covered with a plastic lid and incubated in a growth chamber as described previously for fungal growth. Growth was then evaluated by measuring absorbance of each well at 620 nm using a microplate photometer (Packard Spectra Count, Packard Instrument Co., Downers Grove, Ill.). Microtiter plates (Nunc MicroWell, untreated; Roskilde, Denmark) were covered with a plastic lid and incubated in a growth chamber at 24±1° C. and 12 hour photoperiod under 60±5 μmol light. Growth was then evaluated by measuring absorbance of each well at 620 nm using a microplate photometer (Packard Spectra Count, Packard Instrument Co., Downers Grove, Ill.).
(§4) Microbioassy Experimental Design. Chemical sensitivity each of B. cinerea, C. acutatum, C. fragariae, C. gloeosporiodes, F. oxysporum, Phomopsis viticola, and P. obscurans was evaluated using 96-well plate microbioassay format. Each chemical was evaluated in duplicate at each dose (0.3, 3.0 and 30.0 μM). […]

C. fragariae = type: cell-based, Colletotrichum fragariae; conditions: for Percent inhibition−Percent Stimulation±SEM: C. fragariae; for inhibition at 0.3 µM / inhibition at 3 µM / inhibition at 30 µM: Colletotrichum fragariae, read-out: Percent inhibition−Percent Stimulation±SEM
Source text: as §1, §2, §3, §4

C. gloeosporioides = type: cell-based, Colletotrichum gloeosporioides; conditions: for Percent inhibition−Percent Stimulation±SEM: C. gloeosporioides; for inhibition at 0.3 µM / inhibition at 3 µM / inhibition at 30 µM: Colletotrichum gloeosporioides, read-out: Percent inhibition−Percent Stimulation±SEM
Source text: as §1, §2, §3, §4

B. cinerea = type: cell-based, Botrytis cinerea; conditions: for Percent inhibition−Percent Stimulation±SEM: B. cinerea; for inhibition at 0.3 µM / inhibition at 3 µM / inhibition at 30 µM: Botrytis cinerea, read-out: Percent inhibition−Percent Stimulation±SEM
Source text: as §1, §2, §3, §4

F. oxysporum = type: cell-based, Fusarium oxysporum; conditions: for Percent inhibition−Percent Stimulation±SEM: F. oxysporum; for inhibition at 0.3 µM / inhibition at 3 µM / inhibition at 30 µM: Fusarium oxysporum, read-out: Percent inhibition−Percent Stimulation±SEM
Source text: as §1, §2, §3, §4

**Q.** Which “Percent inhibition−Percent Stimulation±SEM” value (C. acutatum; 0.3 μM, 48 hrs) does the source give for O=C1c2ccccc2-c2nccc3c2c1nc1ccccc13 [Benzo[4,5]sampangine, benzo[4,5]sampangine] here?
**A.** The value was −30.5 ± 10.2%.

**Q.** And the “Percent inhibition−Percent Stimulation±SEM” value (C. acutatum; 0.3 μM, 72 hrs)?
**A.** Its value is −25.9 ± 8.0%.

**Q.** What about the “Percent inhibition−Percent Stimulation±SEM” value (C. acutatum; 3.0 μM, 48 hrs) of the same compound?
**A.** Its value is −74.2 ± 6.3%.

**Q.** And the “Percent inhibition−Percent Stimulation±SEM” value (C. acutatum; 3.0 μM, 72 hrs)?
**A.** The value was −46.2 ± 5.2%.

**Q.** And the “Percent inhibition−Percent Stimulation±SEM” value (C. acutatum; 30 μM, 48 hrs)?
**A.** Its value is −57.0 ± 10.0%.

**Q.** And the “Percent inhibition−Percent Stimulation±SEM” value (C. acutatum; 30 μM, 72 hrs)?
**A.** The value was −38.9 ± 5.2%.

**Q.** And the “Percent inhibition−Percent Stimulation±SEM” value (C. fragariae; 0.3 μM, 48 hrs)?
**A.** Its value is −38.4 ± 6.1%.

**Q.** And the “Percent inhibition−Percent Stimulation±SEM” value (C. fragariae; 0.3 μM, 72 hrs)?
**A.** Its value is −19.8 ± 7.7%.

**Q.** What about the “Percent inhibition−Percent Stimulation±SEM” value (C. fragariae; 3.0 μM, 48 hrs) of the same compound?
**A.** The value was −72.4 ± 8.5%.

**Q.** And the “Percent inhibition−Percent Stimulation±SEM” value (C. fragariae; 3.0 μM, 72 hrs)?
**A.** Its value is −54.7 ± 11.2%.

**Q.** And the “Percent inhibition−Percent Stimulation±SEM” value (C. fragariae; 30 μM, 48 hrs)?
**A.** Its value is −52.9 ± 6.5%.

**Q.** And the “Percent inhibition−Percent Stimulation±SEM” value (C. fragariae; 30 μM, 72 hrs)?
**A.** Its value is −29.4 ± 6.8%.

**Q.** And the “Percent inhibition−Percent Stimulation±SEM” value (C. gloeosporioides; 0.3 μM, 48 hrs)?
**A.** The value was −100.0 ± 1.0%.

**Q.** What about the “Percent inhibition−Percent Stimulation±SEM” value (C. gloeosporioides; 0.3 μM, 72 hrs) of the same compound?
**A.** Its value is −100.0 ± 0.3%.

**Q.** And the “Percent inhibition−Percent Stimulation±SEM” value (C. gloeosporioides; 3.0 μM, 48 hrs)?
**A.** Its value is −98.6 ± 1.1%.

**Q.** What about the “Percent inhibition−Percent Stimulation±SEM” value (C. gloeosporioides; 3.0 μM, 72 hrs) of the same compound?
**A.** The value was −99.7 ± 0.4%.

**Q.** And the “Percent inhibition−Percent Stimulation±SEM” value (C. gloeosporioides; 30 μM, 48 hrs)?
**A.** The value was −100.0 ± 1.8%.

**Q.** And the “Percent inhibition−Percent Stimulation±SEM” value (C. gloeosporioides; 30 μM, 72 hrs)?
**A.** The value was −100.0 ± 0.9%.

**Q.** What about the “Percent inhibition−Percent Stimulation±SEM” value (B. cinerea; 0.3 μM, 48 hrs) of the same compound?
**A.** The value was −70.2 ± 5.8%.

**Q.** And the “Percent inhibition−Percent Stimulation±SEM” value (B. cinerea; 0.3 μM, 72 hrs)?
**A.** The value was −55.2 ± 8.1%.

**Q.** And the “Percent inhibition−Percent Stimulation±SEM” value (B. cinerea; 3.0 μM, 48 hrs)?
**A.** Its value is −78.0 ± 3.6%.

**Q.** What about the “Percent inhibition−Percent Stimulation±SEM” value (B. cinerea; 3.0 μM, 72 hrs) of the same compound?
**A.** The value was −46.7 ± 10.2%.

**Q.** And the “Percent inhibition−Percent Stimulation±SEM” value (B. cinerea; 30 μM, 48 hrs)?
**A.** Its value is −99.2 ± 19.4%.

**Q.** What about the “Percent inhibition−Percent Stimulation±SEM” value (B. cinerea; 30 μM, 72 hrs) of the same compound?
**A.** The value was −22.8 ± 14.7%.

**Q.** And the “Percent inhibition−Percent Stimulation±SEM” value (F. oxysporum; 0.3 μM, 48 hrs)?
**A.** The value was −48.2 ± 4.4%.

**Q.** What about the “Percent inhibition−Percent Stimulation±SEM” value (F. oxysporum; 0.3 μM, 72 hrs) of the same compound?
**A.** Its value is −17.1 ± 2.0%.

**Q.** And the “Percent inhibition−Percent Stimulation±SEM” value (F. oxysporum; 3.0 μM, 48 hrs)?
**A.** The value was −77.7 ± 5.7%.

**Q.** And the “Percent inhibition−Percent Stimulation±SEM” value (F. oxysporum; 3.0 μM, 72 hrs)?
**A.** Its value is −27.2 ± 6.2%.

**Q.** What about the “Percent inhibition−Percent Stimulation±SEM” value (F. oxysporum; 30 μM, 48 hrs) of the same compound?
**A.** The value was −57.9 ± 3.2%.

**Q.** And the “Percent inhibition−Percent Stimulation±SEM” value (F. oxysporum; 30 μM, 72 hrs)?
**A.** The value was −27.2 ± 1.9%.

**Q.** Which results are given for O=C1C2CC=CCC2C(=O)N1SC(Cl)(Cl)Cl (stereo not drawn) [Captan]?
**A.** inhibition at 0.3 µM (C. acutatum; 48 h): -2.7 ± 2.4%; inhibition at 3 µM (C. acutatum; 48 h): 98.8 ± 0.4%; inhibition at 30 µM (C. acutatum; 48 h): 99.5 ± 0.3%; inhibition at 0.3 µM (C. acutatum; 72 h): -9.5 ± 1.5%; inhibition at 3 µM (C. acutatum; 72 h): 94.8 ± 0.2%; inhibition at 30 µM (C. acutatum; 72 h): 99.6 ± 0.2%; inhibition at 0.3 µM (C. fragariae; 48 h): -20.5 ± 9.5%; inhibition at 3 µM (C. fragariae; 48 h): 98.1 ± 0.6%; inhibition at 30 µM (C. fragariae; 48 h): 98.8 ± 0.8%; inhibition at 0.3 µM (C. fragariae; 72 h): -14.9 ± 2.2%; inhibition at 3 µM (C. fragariae; 72 h): 97.8 ± 1.6%; inhibition at 30 µM (C. fragariae; 72 h): 99.5 ± 0.3%; inhibition at 0.3 µM (C. gloeosporioides; 48 h): -4.4 ± 4.4%; inhibition at 3 µM (C. gloeosporioides; 48 h): 96.3 ± 2.1%; inhibition at 30 µM (C. gloeosporioides; 48 h): 99.7 ± 0.6%; inhibition at 0.3 µM (C. gloeosporioides; 72 h): -15.3 ± 2.1%; inhibition at 3 µM (C. gloeosporioides; 72 h): 97.9 ± 0.7%; inhibition at 30 µM (C. gloeosporioides; 72 h): 100 ± 0.3%; inhibition at 0.3 µM (B. cinerea; 48 h): -55.9 ± 24.7%; inhibition at 3 µM (B. cinerea; 48 h): 38.4 ± 23.5%; inhibition at 30 µM (B. cinerea; 48 h): 58 ± 23.2%; inhibition at 0.3 µM (B. cinerea; 72 h): 40.7 ± 16.3%; inhibition at 3 µM (B. cinerea; 72 h): 54.6 ± 22.9%; inhibition at 30 µM (B. cinerea; 72 h): 54 ± 17.9%; inhibition at 0.3 µM (F. oxysporum; 48 h): 2.8 ± 4.7%; inhibition at 3 µM (F. oxysporum; 48 h): 77.2 ± 7.2%; inhibition at 30 µM (F. oxysporum; 48 h): 100 ± 0.4%; inhibition at 0.3 µM (F. oxysporum; 72 h): -4.7 ± 2.1%; inhibition at 3 µM (F. oxysporum; 72 h): 24.1 ± 6.5%; inhibition at 30 µM (F. oxysporum; 72 h): 99.8 ± 0.2%

Source: patent publication US6844353B2, “Fungicidal properties of sampangine and its analogs to agriculturally important fungal plant pathogens” (The United States of America as represented by the …, priority 2003, dated 2005)
